{"source": "paper PMC3466269", "about": "“A Comprehensive Strategy to Discover Inhibitors of the Translesion Synthesis DNA Polymerase κ” (PLoS ONE, 2012)", "key": {"[1]": {"system": "double-stranded DNA ladder", "assay": "DNA intercalation assay (agarose gel shift of DNA ladder)", "assay_type": "binding", "settings": "0.75 or 3 nmol compound with 1.5 nmol DNA, 1% agarose gel", "protocol": "Candesartan cilexetil or ethidium bromide was incubated with 1.5 nmol of double-stranded DNA ladder for 15 min at room temperature in the buffer containing 50 mM Tris-HCl, pH 8.0, 0.01% Tween-20, 1 mM DTT, and 40 mM NaCl. The reaction mixtures were run on 1% agarose gel and stained with ethidium bromide (0.5 µg/ml) for visualization.\nFigure 7 The non-DNA-intercalating property of candesartan cilexetil. Candesartan cilexetil or ethidium bromide was incubated with double-stranded DNA ladder, and the reaction products were run on 1% agarose gel and stained with ethidium bromide. Lane 1: No compound. Lane 2: 0.75 nmol of candesartan cilexetil was incubated with 1.5 nmol DNA. Lane 3: 3 nmol of candesartan cilexetil was incubated with 1.5 nmol DNA. Lane 4: 0.75 nmol of ethidium bromide was incubated with 1.5 nmol DNA. Lane 5: 3 nmol of ethidium bromide was incubated with 1.5 nmol DNA."}, "XP30RO cells (XP-V) [2]": {"system": "XP30RO cells (XP-V)", "assay": "Cell survival assay, CellTiter-Glo Luminescent Cell Viability Assay, with or without UV", "assay_type": "cell-based, Human", "settings": "CellTiter-Glo (ATP content); 24 µM, UV 1.5, 4.5 or 7.5 J/m^2", "text": "Supplementary file pone.0045032.s001.tif: Figure S1 Effect of candesartan cilexetil on UV-induced cytotoxicity using CellTiter-Glo Luminescent Cell Viability Assay. […] I: candesartan cilexetil. (TIF) Click here for additional data file."}, "XP30RO cells (XP-V) [3]": {"system": "XP30RO cells (XP-V)", "assay": "Cell survival assay, crystal violet, with or without UV", "method": "Cell survival assays were carried out using crystal violet assays and CellTiter-Glo Luminescent Cell Viability Assays. In crystal violet assays, XP30RO cells were plated into clear 96-well plates at a density of 8000 cells/mL and incubated overnight at 37°C, 5% CO2. The cells were treated with (1) inhibitor alone for 6 h or (2) UV alone or (3) inhibitor alone for 6 h followed by UV irradiation. After 2 days, cells were fixed with 4% paraformaldehyde and stained with 0.5% crystal violet dye. The dye was dissolved in 10% acetic acid and absorbance measurement was taken at OD595 nm with Infinite® M200 plate reader (Tecan, Durham, NC). For the CellTiter-Glo Luminescent Cell Viability Assays, the same procedures as crystal violet assays were used except that white/clear bottom 96-well plates were used and cell viability was measured following manufacturer's recommendations.\nXP30RO cells were treated with 24 µM of candesartan cilexetil alone, UV alone at 1.5 J/m^2, 4.5 J/m^2, or 7.5 J/m^2, or in combination. Percent survival was calculated by normalizing the data using the cell survival of untreated cells. The data were obtained from three independent experiments."}}, "data": [{"compound": "CCOc1nc2cccc(C(=O)OC(C)OC(=O)OC3CCCCC3)c2n1Cc1ccc(-c2ccccc2-c2nnn[nH]2)cc1", "note": "(stereo not shown) [candesartan cilexetil, Candesartan cilexetil]", "values": [{"measurement": "DNA migration pattern (intercalation)", "setting": "[1]", "result": "no difference in DNA migration pattern"}, {"measurement": "Effect on UV-induced cytotoxicity", "setting": "XP30RO cells (XP-V) [2]", "result": "comparable results were obtained"}, {"measurement": "Cell survival with compound alone", "setting": "XP30RO cells (XP-V) [3]; 24 µM, no UV", "result": "cell survival was not altered"}, {"measurement": "Effect on UV-induced cytotoxicity", "setting": "XP30RO cells (XP-V) [3]; crystal violet, inhibitor 6 h then UV 1.5, 4.5 or 7.5 J/m^2, candesartan cilexetil 24 µM", "result": "potentiated the cytotoxicity of UV at higher UV doses"}]}]}
